Patent US12421205B2, “GLP-1 receptor agonist” (HYUNDAI PHARM CO., LTD., priority 2019, dated 2025)
Like-named read-outs stand apart in the source and are kept apart here.

Key:
[1] = target: T1, hERG (Homo sapiens, UniProt Q12809); assay: hERG inhibition test (Predictor hERG Fluorescence Polarization assay kit); format: binding; conditions: probe kit Tracer (fluorescent hERG ligand), hERG % inhibition at 10 uM, relative to E-4031 and solvent control
T1 construct: purchased Invitrogen PV5365
Procedure, shortened: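 Competitive fluorescence-polarization binding of fluorescent tracer to hERG membrane preparation, 2.5 h at room temperature, mP read at 531/579 nm. % inhibition at 10 uM test compound, scaled between solvent control (0%) and E-4031 (100%).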

[2] = target: T2, human GLP-1 receptor (Homo sapiens, UniProt P43220); assay: cAMP activity test (cAMP dynamic HTRF kit) in CHO-K1/GLP-1 receptor-expressing cells; format: cell-based
T2 construct: host or cells: CHO-K1
T2 sequence (P43220 24-463): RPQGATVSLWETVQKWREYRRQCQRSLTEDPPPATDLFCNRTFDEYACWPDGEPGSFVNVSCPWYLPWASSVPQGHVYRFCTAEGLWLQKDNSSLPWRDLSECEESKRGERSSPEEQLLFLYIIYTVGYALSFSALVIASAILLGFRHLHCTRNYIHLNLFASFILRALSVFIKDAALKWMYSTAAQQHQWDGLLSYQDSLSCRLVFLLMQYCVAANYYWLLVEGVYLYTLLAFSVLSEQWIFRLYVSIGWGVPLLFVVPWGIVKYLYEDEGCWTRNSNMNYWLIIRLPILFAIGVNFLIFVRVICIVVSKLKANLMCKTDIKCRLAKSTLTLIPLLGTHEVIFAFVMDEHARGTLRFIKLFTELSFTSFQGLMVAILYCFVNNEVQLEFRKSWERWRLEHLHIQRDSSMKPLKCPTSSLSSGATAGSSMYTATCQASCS
Procedure, shortened: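 Cells in HBSS with 0.1% BSA, 0.5 mM IBMX and 5 mM HEPES, then lysed; cAMP-d2 and anti-cAMP cryptate added for 3 h. HTRF read-out, where FRET signal is inversely proportional to intracellular cAMP.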

[3] = cAMP activity, CHO-K1/GLP-1 receptor-expressing cells, read-out: EC50

T1 sequence (Q12809 whole entry): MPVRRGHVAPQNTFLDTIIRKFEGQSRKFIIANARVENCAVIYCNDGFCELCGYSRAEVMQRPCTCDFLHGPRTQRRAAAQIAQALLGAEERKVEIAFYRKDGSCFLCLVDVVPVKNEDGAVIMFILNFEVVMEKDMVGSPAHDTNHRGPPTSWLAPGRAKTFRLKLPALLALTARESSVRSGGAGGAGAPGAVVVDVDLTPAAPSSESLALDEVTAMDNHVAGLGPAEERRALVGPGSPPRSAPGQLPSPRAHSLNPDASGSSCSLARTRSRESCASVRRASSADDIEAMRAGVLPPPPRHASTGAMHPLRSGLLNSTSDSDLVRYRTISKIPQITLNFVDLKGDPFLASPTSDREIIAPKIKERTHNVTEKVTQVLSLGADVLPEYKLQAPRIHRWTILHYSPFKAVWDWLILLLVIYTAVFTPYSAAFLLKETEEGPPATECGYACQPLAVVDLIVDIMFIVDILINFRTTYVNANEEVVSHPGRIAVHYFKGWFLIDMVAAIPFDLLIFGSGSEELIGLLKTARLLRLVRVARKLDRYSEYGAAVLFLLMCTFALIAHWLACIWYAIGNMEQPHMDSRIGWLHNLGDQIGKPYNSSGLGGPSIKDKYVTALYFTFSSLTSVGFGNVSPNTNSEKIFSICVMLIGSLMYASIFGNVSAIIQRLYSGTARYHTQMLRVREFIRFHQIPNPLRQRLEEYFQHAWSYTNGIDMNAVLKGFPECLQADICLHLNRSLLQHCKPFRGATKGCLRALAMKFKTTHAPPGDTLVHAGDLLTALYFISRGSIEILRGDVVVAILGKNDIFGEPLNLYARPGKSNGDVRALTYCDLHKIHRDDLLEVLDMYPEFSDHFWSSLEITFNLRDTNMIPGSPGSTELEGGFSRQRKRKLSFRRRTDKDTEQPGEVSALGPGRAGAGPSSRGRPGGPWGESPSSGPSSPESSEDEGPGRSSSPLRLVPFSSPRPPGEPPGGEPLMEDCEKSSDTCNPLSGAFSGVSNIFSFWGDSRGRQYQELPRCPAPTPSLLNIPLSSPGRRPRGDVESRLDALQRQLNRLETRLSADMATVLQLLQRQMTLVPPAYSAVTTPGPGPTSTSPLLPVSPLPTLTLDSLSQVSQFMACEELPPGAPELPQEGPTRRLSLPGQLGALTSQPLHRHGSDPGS

| Structure (SMILES) | inhibition at 2.5 h, 10 µM [1] | EC50 [2, 3] | EC50 [2] |
| --- | --- | --- | --- |
| COCCn1c(Cc2c(F)cc(-c3cccc(OCc4ccc(Cl)cc4F)n3)cc2F)nc2ccc(C(=O)O)cc21 [Example 37, 2-(4-(6-(4-chloro-2-fluorobenzyloxy)pyridin-2-yl)-2,6-difluorobenzyl)-1-(2-methoxyethyl)-1H-benzo[d]imidazole-6-carboxylic acid] | -10.6% | 13 nM | – |
| O=C(O)c1ccc2nc(Cc3ccc(-c4cccc(OCc5ccc(Cl)cc5F)n4)c(F)c3)n(Cc3cnco3)c2c1 [Example 35, 2-(4-(6-(4-chloro-2-fluorobenzyloxy)pyridin-2-yl)-3-fluorobenzyl)-1-(oxazol-5-ylmethyl)-1H-benzo[d]imidazole-6-carboxylic acid] | -3.82% | 9 nM | – |
| N#Cc1ccc(COc2cccc(-c3ccc(Cc4nc5ccc(C(=O)O)cc5n4Cc4ccco4)c(F)c3)c2)c(F)c1 [Example 28, 2-((3′-(4-cyano-2-fluorobenzyloxy)-3-fluorobiphenyl-4-yl)methyl)-1-(furan-2-ylmethyl)-1H-benzo[d]imidazole-6-carboxylic acid] | 0.52% | 130 nM | – |
| N#Cc1ccc(COc2cccc(-c3ccc(Cc4nc5ccc(C(=O)O)cc5n4CC4CCO4)cc3F)n2)c(F)c1 (centres unmarked) [Example 114, 2-(4-(6-((4-cyano-2-fluorobenzyl)oxy)pyridin-2-yl)-3-fluorobenzyl)-1-(oxetan-2-ylmethyl)-1H-benzo[d]imidazole-6-carboxylic acid] | -4.71% | < 3.2 nM | – |
| N#Cc1ccc(COc2cccc(-c3ccn(Cc4nc5ccc(C(=O)O)cc5n4C[C@@H]4CCCO4)c(=O)c3)n2)c(F)c1 [Example 109, (S)-2-((4-(6-(4-cyano-2-fluorobenzyloxy)pyridin-2-yl)-2-oxopyridin-1(2H)-yl)methyl)-1-((tetrahydrofuran-2-yl)methyl)-1H-benzo[d]imidazole-6-carboxylic acid] | 6.49% | 130 nM | – |
| O=C(O)c1ccc2nc(Cc3ccc(-c4cccc(OCc5ccc(C(F)(F)F)cc5)n4)c(F)c3)n(CC3CCCO3)c2c1 (centres unmarked) [Example 97, 2-(3-fluoro-4-(6-(4-(trifluoromethyl)benzyloxy)pyridin-2-yl)benzyl)-1-((tetrahydrofuran-2-yl)methyl)-1H-benzo[d]imidazole-6-carboxylic acid] | 6.11% | 31 nM | – |
| O=C(O)c1ccc2nc(Cc3ccc(-c4cccc(OCc5ccc([N+](=O)[O-])cc5)n4)c(F)c3)n(C[C@@H]3CCO3)c2c1 [Example 124, (S)-2-(3-fluoro-4-(6-((4-nitrobenzyl)oxy)pyridin-2-yl)benzyl)-1-(oxetan-2-ylmethyl)-1H-benzo[d]imidazole-6-carboxylic acid] | 7.28% | 4.3 nM | – |
| O=C(O)c1ccc2nc(Cc3ccc(-c4cccc(OCc5c(F)cccc5Cl)n4)c(F)c3)n(C[C@@H]3CCO3)c2c1 [Example 126, (S)-2-(4-(6-((2-chloro-6-fluorobenzyl)oxy)pyridin-2-yl)-3-fluorobenzyl)-1-(oxetan-2-ylmethyl)-1H-benzo[d]imidazole-6-carboxylic acid] | -3.99% | 510 nM | – |
| O=C(O)c1ccc2nc(Cn3cnc(-c4cccc(OCc5ccc(Cl)cc5F)n4)cc3=O)n(CC3CCCO3)c2c1 (centres unmarked) [Example 112, 2-((4-(6-(4-chloro-2-fluorobenzyloxy)pyridin-2-yl)-6-oxopyrimidin-1(6H)-yl)methyl)-1-((tetrahydrofuran-2-yl)methyl)-1H-benzo[d]imidazole-6-carboxylic acid] | 1.14% | 290 nM | – |
| COCCn1c(Cc2ccc(-c3cccc(OCc4ccc(C#N)cc4F)n3)c(F)c2)nc2ccc(C(=O)O)cc21 [Example 38, 2-(4-(6-(4-cyano-2-fluorobenzyloxy)pyridin-2-yl)-3-fluorobenzyl)-1-(2-methoxyethyl)-1H-benzo[d]imidazole-6-carboxylic acid] | 9.5% | – | 140 nM |
